Source: ChEMBL document CHEMBL1201862, “PubChem BioAssay data set” (2004)
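Cultured in 96-well plates, cells were exposed to test compound for 48 hours across five concentrations. GI50: concentration for 50% inhibition of growth.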 Activity calls are given as the source filed them. Rule as the data show it: active = GI50 up to about 1.1 µM and inactive = higher.

What was measured:
Test in all cases: NCI anticancer screen, dose series, 48 h
[1] = test system: DMS-273
[2] = test system: KM-20L2
[3] = test system: UO-31
[4] = test system: SK-MEL-2
[5] = test system: OVCAR-3
[6] = test system: LOX IMVI
[7] = test system: CCRF-CEM
[8] = test system: NCI-H522
[9] = test system: MOLT-4
[10] = test system: IGROV-1
[11] = test system: SF-268
[12] = test system: NCI-H23
[13] = test system: A549
[14] = test system: LXFL 529
[15] = test system: HOP-92
[16] = test system: U-251
[17] = test system: SR
[18] = test system: OVCAR-5
[19] = test system: RXF 393
[20] = test system: XF498
[21] = test system: HOP-62
[22] = test system: K562
[23] = test system: SK-MEL-5
[24] = test system: DMS-114
[25] = test system: SK-OV-3
[26] = test system: HL-60
[27] = test system: SNB-19
[28] = test system: M19-MEL
[29] = test system: OVCAR-8
[30] = test system: 786-0
[31] = test system: DLD-1
[32] = test system: NCI-H460
[33] = test system: COLO 205
[34] = test system: SW-620
[35] = test system: SNB-75
[36] = test system: RPMI-8226
[37] = test system: UACC-62
[38] = test system: SN12C
[39] = test system: SK-MEL-28
[40] = test system: HCT-15
[41] = test system: HOP-18
[42] = test system: SF-539
[43] = test system: M14
[44] = test system: HCT-116
[45] = test system: EKVX
[46] = test system: A498
[47] = test system: KM12
[48] = test system: ACHN
[49] = test system: UACC-257
[50] = test system: Malme-3M
[51] = test system: TK-10
[52] = test system: HT-29
[53] = test system: OVCAR-4

Compound | GI50 [1] | GI50 [2] | GI50 [3] | GI50 [4] | GI50 [5] | GI50 [6] | GI50 [8] | GI50 [9] | GI50 [10] | GI50 [11] | GI50 [12] | GI50 [13] | GI50 [14] | GI50 [15] | GI50 [18] | GI50 [23] | GI50 [26] | GI50 [28] | GI50 [32] | GI50 [33] | further results
COc1cc(CNc2ccc(C)cc2)cc(OC)c1OC | 103 nM (active) | 246 nM (active) | 807 nM (active) | 229 nM (active) | 213 nM (active) | 621 nM (active) | 255 nM (active) | 331 nM (active) | 659 nM (active) | 741 nM (active) | 361 nM (active) | 500 nM (active) | 635 nM (active) | 3340 nM (inactive) | 1740 nM (inactive) | 472 nM (active) | 76.4 nM (active) | 330 nM (active) | 252 nM (active) | 219 nM (active) | GI50 [7]: 252 nM (active); GI50 [16]: 356 nM (active); GI50 [17]: 138 nM (active); GI50 [19]: 163 nM (active); GI50 [20]: 962 nM (active); GI50 [21]: 386 nM (active); GI50 [22]: 82.6 nM (active); GI50 [24]: 277 nM (active); GI50 [25]: 301 nM (active); GI50 [27]: 533 nM (active); GI50 [29]: 624 nM (active); GI50 [30]: 384 nM (active); GI50 [31]: 450 nM (active); GI50 [34]: 149 nM (active); GI50 [35]: 316 nM (active); GI50 [36]: 467 nM (active)
Cc1c2cc[n+](C)cc2c(C)c2c1[nH]c1ccc(OC(C)C)cc12 | 2190 nM (inactive) | 3580 nM (inactive) | 44100 nM (inactive) | 1660 nM (inactive) | 1900 nM (inactive) | 4190 nM (inactive) | 1470 nM (inactive) | 3160 nM (inactive) | 1900 nM (inactive) | 474 nM (active) | 1410 nM (inactive) | 2010 nM (inactive) | 515 nM (active) | 2600 nM (inactive) | 10900 nM (inactive) | 1400 nM (inactive) | 2560 nM (inactive) | 1640 nM (inactive) | 2150 nM (inactive) | 1280 nM (inactive) | GI50 [37]: 2510 nM (inactive); GI50 [38]: 392 nM (active); GI50 [39]: 2970 nM (inactive); GI50 [40]: > 100000 nM; GI50 [41]: 2540 nM (inactive); GI50 [42]: 1390 nM (inactive); GI50 [43]: 6340 nM (inactive); GI50 [44]: 2910 nM (inactive); GI50 [45]: 6620 nM (inactive); GI50 [46]: 6350 nM (inactive); GI50 [47]: 1620 nM (inactive); GI50 [48]: 11600 nM (inactive); GI50 [49]: 2370 nM (inactive); GI50 [50]: 1340 nM (inactive); GI50 [51]: 19800 nM (inactive); GI50 [34]: 2490 nM (inactive); GI50 [35]: 239 nM (active); GI50 [52]: 3060 nM (inactive); GI50 [53]: 2160 nM (inactive); GI50 [36]: 6100 nM (inactive)
